The values that follow come from PMC10110893, “[…]-derived synthetic cannabinoids inhibit T-type calcium channels with divergent effects on seizures in rodent models of epilepsy” (Frontiers in Physiology, 2023).

The structures appear in SMILES notation. Like-named read-outs stand apart in the source and are kept apart here. Bounds are passed on as bounds.

For series [1], the system named is cannabinoid CB1 receptors. More on the design: method as in Kevin et al., 2022. Conditions: ref Kevin et al., 2022; cited from earlier work.
The subject of series [2] is 6 Hz-induced seizures in Swiss mice. The arrangement: method as in Barton et al., 2001. Conditions: 6 Hz model, ref Barton et al., 2001; cited from earlier work.
Another series addresses T1, human Cav3.1 (Homo sapiens, UniProt O43497).
T1 construct: expressed in transfected cells; host or cells: HEK293 FlpIn T-Rex cells (Invitrogen)
Briefly: FLIPR calcium flux assay, Cav3.1. In kind it is cell-based. As for the experimental part: (§1) HEK293 FlpIn T-Rex cells (Invitrogen, CA, United States) stably expressing human Cav3.1, Cav3.2, or Cav3.3 were maintained in Dulbecco’s Modified Eagle Medium (DMEM) supplemented with 10% foetal bovine serum (FBS), 1% penicillin-streptomycin (P/S) at 37°C, and 5% CO2 as previously described ([Bladen et al., 2021]; [Udoh et al., 2022]). Hygromycin (80 μg/mL) and blasticidin (15 μg/mL) were used as selection antibiotics and cells were passaged at 80% confluency. For experiments, cells were resuspended in Leibovitz’s L-15 media (containing 1% FBS, 1% P/S, 15 mM glucose, 2 μg/mL tetracycline), plated in black, clear-bottomed poly-D-lysine-coated 96-well plates (90 μL) (Corning, NY, United States), and incubated overnight in ambient air at 37°C. All compounds tested in cellular assays were prepared as stock solutions in DMSO and final DMSO concentration was 0.1%.
(§2) Intracellular calcium flux was measured using a fluorometric imaging plate-reader (FLIPR) Calcium 5 Assay Kit and FlexStation 3 Microplate Reader (Molecular Devices, San Jose, United States). Calcium 5 dye (90 μL) prepared in low potassium HBSS (Thermo Fisher Scientific) containing (in mM) 145 NaCl, 22 HEPES, 0.338 Na2HPO4, 4.17 NaHCO3, 0.441 KH2PO4, 0.407 MgSO4, 0.493 MgCl2, 1.26 CaCl2, 5.56 glucose, and […] with pH 7.4 was applied to each well and incubated for 1 h at 37°C, ambient air prior to testing.
(§3) Fluorescence readings were taken at 2 s intervals (λ excitation = 485 nm, λ emission = 525 nm). Following 2 min baseline reading, 20 μL of SB2193, SB2193F, or NNC 55-0396 (10 nM—10 μM) was added to cells and read for 5 min, then CaCl2 (10 mM) was added and read for 3 min. Baseline fluorescence averaged over the 20 s interval preceding CaCl2 addition was subtracted and normalized to the vehicle response. Changes in fluorescence were measured in relative fluorescence units (RFU). All compounds were assayed in ≥ five independent experiments (n = 5–8) performed in duplicate. Order of compound addition and location on the plate were varied between replicates. Data was fit to a four-parameter non-linear dose-response curve using GraphPad Prism 8.2.0 software (La Jolla, United States) to determine IC50 values.

Another series has as its target T2, human Cav3.3 (Homo sapiens, UniProt Q9P0X4).
T2 construct: expressed in transfected cells; host or cells: HEK293 FlpIn T-Rex cells (Invitrogen)
Briefly: FLIPR calcium flux assay, Cav3.3. It counts as cell-based. As for the experimental part:
as §1, §2, §3
A general note: Calcium flux is commonly read through the fluorescence of an indicator in the cells.

The next series concerns the target T3, human Cav3.2 (Homo sapiens, UniProt O95180).
T3 construct: expressed in transfected cells; host or cells: HEK293 FlpIn T-Rex cells (Invitrogen)
The series can be described thus: FLIPR calcium flux assay, Cav3.2. It counts as cell-based.

Series [3] in a line: Pharmacokinetics in mouse plasma and brain after single i.p. injection. It counts as in vivo. Conditions: both sexes, 10 mg/kg i.p.; for Tmax / half-life / Cmax: wildtype F1, ip; for AUC: wildtype F1, mouse, 10 mg/kg. As for the experimental part: SB2193 and SB2193F were prepared in ethanol-Tween 80%–0.9% saline (1:1:18 ratio) and valproic acid in 0.9% saline. All doses were completely soluble in this vehicle except for the 100 mg/kg SB2193 dose, which was a suspension.
Male and female wildtype F1 mice aged 21–28 days postnatal received a single i. p. injection of 10 mg/kg SB2193 or SB2193F. At selected timepoints (15–240 min), mice were anesthetised with isoflurane, blood was collected via cardiac puncture and whole brains were harvested. Brains were snap frozen on dry ice, and blood plasma was isolated via centrifugation (4,000 g for 10 min, 4^○C). Brain and plasma samples were stored at −80°C until assayed.
Plasma samples (50 μL) were spiked with an internal standard (diazepam) and vortexed with 1 M NaOH (50 μL) and methyl tert-butyl ether (1 mL) to achieve protein precipitation. The organic layer was isolated by centrifugation (4,000 g for 3 min) before being frozen for 60 min at −80°C, evaporated to dryness using N2, and reconstituted in 30% acetonitrile and 0.1% formic acid in water for analysis. Brain hemispheres were homogenised in a 10x w/v 1:1 methanol-water solution using a Biospec Tissue-Tearor (Bartlesville, United States) and centrifuged at 20,000 g for 30 min at 4°C. Supernatant (100 μL) was collected and prepared following the same method as plasma.
SB2193 and SB2193F concentrations in brain and plasma samples were assessed by high performance liquid chromatography-tandem mass spectrometry (HPLC-MS/MS) using a Shimadzu Nexera liquid chromatograph coupled with a Shimadzu 8,030 triple quadrupole mass spectrometer (Kyoto, Japan). Samples were run through a Zorbax C18 HPLC Column equipped with a Zorbax Eclipse XDB-C8 guard column (2.1 × 50 mm, 3.5 μm particle size; Agilent, Santa Clara, United States) with an injection volume of 10 μL using a gradient elution. Mobile phases of acetonitrile and 0.1% formic acid in water were delivered at a flow rate of 0.6 mL/min over 4.16 min, with a stepwise adjustment of mobile phase concentration gradient over time to optimise ion separation.
Quantification was achieved by comparing experimental samples to plasma and brain standards prepared with known concentrations of SB2193 or SB2193F. Samples were quantified against a 7-point standard curve (R ^2 > 0.98 for both analytes).
Concentrations of SB2193 or SB2193F in plasma and brain at each timepoint were averaged and concentration-time curves were generated using GraphPad Prism. Pharmacokinetic parameters were calculated using non-compartmental analysis. The linear-log trapezoidal method was used to calculate drug exposure (area under the curve, AUC) using equations previously described ([Hawkins et al., 2017]).

The next series has as its system T-type channels. More on the design: method as in Kevin et al., 2022. Particulars: single 10 μM concentration, FLIPR calcium flux and whole-cell patch clamp, ref Kevin et al., 2022; cited from earlier work.
Series [4] deals with 6 Hz-induced seizures in Swiss mice. Briefly: 6 Hz seizure model in mice. It counts as in vivo, mouse. Particulars: 300 mg/kg i.p., positive control, n = 10. Here is the method: Swiss outbred mice used in 6 Hz seizure experiments were purchased from Australian Resources Centre (stock ARC(S); Canning Vale, Australia) and single housed for 1 week prior to experimentation to prevent fighting.
6 Hz seizures were induced in Swiss male mice (9–10 weeks old) using an Ugo Basile electroconvulsive therapy unit (Model 57,800; Gemonio, Italy). Mice were pre-treated with vehicle, SB2193 (10 mg/kg, 30 mg/kg, 100 mg/kg) or valproic acid (300 mg/kg) via i.p. injection 15 min before seizure induction based on the time-to-peak brain concentration determined in pharmacokinetic studies. […] A drop of 0.5% tetracaine was applied to both corneas immediately following the i.p. injection to provide local anaesthesia. Immediately prior to the electrical stimulation, saline was applied to each cornea to ensure electrical conductivity. Corneal electroshocks were administered at 44 mA, 6 Hz, 3 s shock duration, with a […] rectangular pulse width. Mice were shocked and scored by an observer blinded to treatment for the presence of twitching of the vibrissae, stun, myoclonus, rearing, forelimb clonus, and/or Straub tail. […] The ED50 for SB2193 was calculated using computer-assisted log-probit linear regression analysis ([Litchfield and Wilcoxon, 1949]). A χ^2 test was performed to assess statistical significance.

[5] abbreviates: FLIPR calcium flux, HEK293 cells, n = 5–8.

Usually ED50 stands for the dose at which the effect has come halfway, by size or by number of responders. Broadly, the IC50 is the concentration that inhibits the measured activity by half. As a reminder, the Tmax is the time at which the peak concentration occurs. What is called half-life is the time needed for the level to fall by half in the phase considered. A higher half-life goes with slow loss. For orientation: AUC means the area under the concentration-time curve, a measure of exposure. Read a high AUC as more exposure.

T1 sequence (O43497 whole entry): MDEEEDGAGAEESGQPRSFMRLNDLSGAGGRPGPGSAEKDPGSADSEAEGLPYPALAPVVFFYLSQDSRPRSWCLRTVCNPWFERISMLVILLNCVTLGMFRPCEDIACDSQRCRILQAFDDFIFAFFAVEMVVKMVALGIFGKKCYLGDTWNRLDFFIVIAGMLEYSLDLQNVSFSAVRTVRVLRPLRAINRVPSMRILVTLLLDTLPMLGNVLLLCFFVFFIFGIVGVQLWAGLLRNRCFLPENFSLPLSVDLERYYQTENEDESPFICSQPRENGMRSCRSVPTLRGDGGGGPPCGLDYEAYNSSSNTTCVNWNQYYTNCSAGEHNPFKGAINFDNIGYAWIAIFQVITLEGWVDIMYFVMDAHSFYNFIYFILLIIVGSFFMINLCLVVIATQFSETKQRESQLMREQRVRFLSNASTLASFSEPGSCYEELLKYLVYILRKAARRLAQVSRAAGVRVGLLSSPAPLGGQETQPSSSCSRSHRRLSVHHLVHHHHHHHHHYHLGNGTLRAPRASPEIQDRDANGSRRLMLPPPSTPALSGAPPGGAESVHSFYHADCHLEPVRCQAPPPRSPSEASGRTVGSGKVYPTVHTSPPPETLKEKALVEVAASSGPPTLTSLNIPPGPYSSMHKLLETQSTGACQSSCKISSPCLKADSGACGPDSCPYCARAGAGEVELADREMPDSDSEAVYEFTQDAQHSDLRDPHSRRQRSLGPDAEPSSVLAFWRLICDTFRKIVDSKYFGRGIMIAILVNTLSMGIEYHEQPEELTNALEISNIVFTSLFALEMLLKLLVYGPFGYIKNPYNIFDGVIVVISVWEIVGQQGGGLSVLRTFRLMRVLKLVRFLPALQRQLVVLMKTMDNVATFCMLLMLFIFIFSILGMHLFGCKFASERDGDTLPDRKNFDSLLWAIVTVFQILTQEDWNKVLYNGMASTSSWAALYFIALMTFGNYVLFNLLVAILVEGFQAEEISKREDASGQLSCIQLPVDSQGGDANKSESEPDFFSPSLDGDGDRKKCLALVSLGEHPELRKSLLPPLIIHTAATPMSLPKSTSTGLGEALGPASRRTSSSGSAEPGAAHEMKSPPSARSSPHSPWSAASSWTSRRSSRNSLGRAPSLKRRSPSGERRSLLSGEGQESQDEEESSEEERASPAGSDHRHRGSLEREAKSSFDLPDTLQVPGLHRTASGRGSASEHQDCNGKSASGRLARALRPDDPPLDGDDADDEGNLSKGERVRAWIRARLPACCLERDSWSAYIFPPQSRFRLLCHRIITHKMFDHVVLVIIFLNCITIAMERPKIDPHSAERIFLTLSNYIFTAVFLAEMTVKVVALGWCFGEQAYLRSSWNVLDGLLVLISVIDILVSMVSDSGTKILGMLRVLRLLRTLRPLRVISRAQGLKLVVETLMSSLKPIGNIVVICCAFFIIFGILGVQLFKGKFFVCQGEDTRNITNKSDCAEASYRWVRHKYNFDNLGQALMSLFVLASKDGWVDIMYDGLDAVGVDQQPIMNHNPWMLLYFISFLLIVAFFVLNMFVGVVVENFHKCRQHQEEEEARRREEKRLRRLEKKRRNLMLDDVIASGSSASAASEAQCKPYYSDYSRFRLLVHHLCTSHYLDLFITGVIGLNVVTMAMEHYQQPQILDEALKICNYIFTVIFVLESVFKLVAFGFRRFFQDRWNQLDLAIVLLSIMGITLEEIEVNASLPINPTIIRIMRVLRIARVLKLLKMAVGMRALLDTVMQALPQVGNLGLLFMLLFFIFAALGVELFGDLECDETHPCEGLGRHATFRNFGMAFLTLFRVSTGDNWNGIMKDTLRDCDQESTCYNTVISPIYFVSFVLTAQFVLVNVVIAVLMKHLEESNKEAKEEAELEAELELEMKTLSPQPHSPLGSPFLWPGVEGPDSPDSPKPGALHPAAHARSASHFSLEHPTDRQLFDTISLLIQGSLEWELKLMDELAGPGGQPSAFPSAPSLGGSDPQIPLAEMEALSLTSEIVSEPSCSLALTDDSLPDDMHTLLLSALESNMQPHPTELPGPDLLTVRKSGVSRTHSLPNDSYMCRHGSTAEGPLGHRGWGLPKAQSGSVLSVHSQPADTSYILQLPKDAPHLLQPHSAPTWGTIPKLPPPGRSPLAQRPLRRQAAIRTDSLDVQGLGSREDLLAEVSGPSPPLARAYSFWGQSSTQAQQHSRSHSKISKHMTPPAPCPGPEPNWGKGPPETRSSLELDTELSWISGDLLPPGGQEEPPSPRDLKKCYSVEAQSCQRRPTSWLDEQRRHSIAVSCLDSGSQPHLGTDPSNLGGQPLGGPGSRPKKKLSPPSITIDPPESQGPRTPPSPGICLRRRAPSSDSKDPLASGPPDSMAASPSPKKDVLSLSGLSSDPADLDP
T2 sequence (Q9P0X4 whole entry): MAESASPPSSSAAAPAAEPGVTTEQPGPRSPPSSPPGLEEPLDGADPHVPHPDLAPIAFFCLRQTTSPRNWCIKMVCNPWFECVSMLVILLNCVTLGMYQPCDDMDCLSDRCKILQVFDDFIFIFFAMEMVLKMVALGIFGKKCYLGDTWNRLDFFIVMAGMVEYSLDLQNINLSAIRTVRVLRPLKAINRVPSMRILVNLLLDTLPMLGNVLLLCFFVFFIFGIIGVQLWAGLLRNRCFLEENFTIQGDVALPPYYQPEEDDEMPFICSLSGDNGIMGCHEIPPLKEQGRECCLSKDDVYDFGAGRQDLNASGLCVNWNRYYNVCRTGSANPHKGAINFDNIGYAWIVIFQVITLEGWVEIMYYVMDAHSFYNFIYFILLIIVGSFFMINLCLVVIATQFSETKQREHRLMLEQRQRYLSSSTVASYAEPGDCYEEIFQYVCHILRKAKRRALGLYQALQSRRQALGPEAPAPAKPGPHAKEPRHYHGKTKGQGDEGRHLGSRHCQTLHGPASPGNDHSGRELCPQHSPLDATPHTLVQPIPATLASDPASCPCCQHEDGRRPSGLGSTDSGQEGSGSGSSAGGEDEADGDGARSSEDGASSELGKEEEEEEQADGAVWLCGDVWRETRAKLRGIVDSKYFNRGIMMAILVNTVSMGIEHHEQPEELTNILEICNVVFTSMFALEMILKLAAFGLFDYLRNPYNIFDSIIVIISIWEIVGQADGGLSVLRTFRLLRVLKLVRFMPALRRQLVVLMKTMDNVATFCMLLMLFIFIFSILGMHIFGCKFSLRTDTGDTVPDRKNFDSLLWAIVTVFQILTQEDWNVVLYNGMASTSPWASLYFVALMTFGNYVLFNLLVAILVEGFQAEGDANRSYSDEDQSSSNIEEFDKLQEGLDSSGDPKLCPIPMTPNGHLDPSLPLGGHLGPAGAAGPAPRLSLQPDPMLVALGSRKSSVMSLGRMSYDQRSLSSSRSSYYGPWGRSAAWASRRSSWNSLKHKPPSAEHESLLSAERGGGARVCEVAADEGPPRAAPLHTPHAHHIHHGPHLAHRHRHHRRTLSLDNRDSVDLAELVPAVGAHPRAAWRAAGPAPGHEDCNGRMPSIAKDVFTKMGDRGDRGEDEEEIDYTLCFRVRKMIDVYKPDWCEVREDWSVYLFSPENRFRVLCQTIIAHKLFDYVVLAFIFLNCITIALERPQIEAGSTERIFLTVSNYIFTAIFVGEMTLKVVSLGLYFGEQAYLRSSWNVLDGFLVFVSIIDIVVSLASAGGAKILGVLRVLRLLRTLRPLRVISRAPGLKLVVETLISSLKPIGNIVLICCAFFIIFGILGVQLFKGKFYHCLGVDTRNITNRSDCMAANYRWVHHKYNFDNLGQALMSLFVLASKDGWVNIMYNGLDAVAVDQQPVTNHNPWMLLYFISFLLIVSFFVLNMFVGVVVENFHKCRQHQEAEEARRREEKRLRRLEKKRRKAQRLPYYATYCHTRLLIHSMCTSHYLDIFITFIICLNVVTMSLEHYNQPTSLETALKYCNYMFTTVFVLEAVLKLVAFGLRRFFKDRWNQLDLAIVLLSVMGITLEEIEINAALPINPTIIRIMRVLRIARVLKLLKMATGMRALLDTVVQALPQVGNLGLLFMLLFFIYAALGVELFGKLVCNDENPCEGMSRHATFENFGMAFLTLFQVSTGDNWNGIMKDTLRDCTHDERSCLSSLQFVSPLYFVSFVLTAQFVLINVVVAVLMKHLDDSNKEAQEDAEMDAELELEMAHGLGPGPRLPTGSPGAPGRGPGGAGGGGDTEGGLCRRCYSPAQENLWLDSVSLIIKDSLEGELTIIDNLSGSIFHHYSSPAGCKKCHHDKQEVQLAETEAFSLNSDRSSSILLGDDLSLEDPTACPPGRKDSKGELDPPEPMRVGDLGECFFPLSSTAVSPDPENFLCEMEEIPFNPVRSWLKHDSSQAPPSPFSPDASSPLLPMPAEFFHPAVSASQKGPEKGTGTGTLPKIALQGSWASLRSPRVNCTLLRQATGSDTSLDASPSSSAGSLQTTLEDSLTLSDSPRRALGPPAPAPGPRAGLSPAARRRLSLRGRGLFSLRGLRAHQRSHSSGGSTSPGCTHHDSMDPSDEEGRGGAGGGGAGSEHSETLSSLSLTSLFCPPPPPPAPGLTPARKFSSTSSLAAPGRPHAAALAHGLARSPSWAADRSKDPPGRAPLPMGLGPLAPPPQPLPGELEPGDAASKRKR
Description for human Cav3.2: Intracellular calcium flux was measured using a fluorometric imaging plate-reader (FLIPR) Calcium 5 Assay Kit and FlexStation 3 Microplate Reader (Molecular Devices, San Jose, United States). […]
Fluorescence readings were taken at 2 s intervals (λ excitation = 485 nm, λ emission = 525 nm). […] Baseline fluorescence averaged over the 20 s interval preceding CaCl2 addition was subtracted and normalized to the vehicle response. Changes in fluorescence were measured in relative fluorescence units (RFU). […]

Consider `CCCCCn1cc(C(=O)N2CCN(C)CC2)c2ccccc21` [reference compound], for which, in series [1], the “activity at cannabinoid CB1 receptors” value is reported as “minimal activity”.

Take `CCC1(C)CC(=O)NC1=O` (centres unmarked) [ethosuximide]: the 50% effective dose (ED50) in series [2] is on record as greater than 600 mg/kg.

In the case of `CC(C)[C@H]1c2ccc(F)cc2CC[C@@]1(CCN(C)CCCc1nc2ccccc2[nH]1)OC(=O)C1CC1` [NNC 55-036, reference compound], at human Cav3.1 (setting [5]), the “Cav3.1 pIC50” value is reported as 5.9 ± 0.06. Further, the IC50 on human Cav3.1 (FLIPR calcium flux, HEK293 cells, n = 5–8, read-out: Cav3.1 IC50) was 1300 nM; on human Cav3.3 (FLIPR calcium flux, HEK293 cells, n = 5–8, read-out: Cav3.3 IC50), 1200 nM. Further, on human Cav3.3 (setting [5]), the “Cav3.3 pIC50” value stood at 5.9 ± 0.06.

`CC(C)(C)OC(=O)N1CCN(C(=O)c2cn(CCCCCF)c3ccccc23)CC1` [SB2193F]: the IC50 is 2300 nM on human Cav3.1, 3160 nM at human Cav3.2 and 8600 nM at human Cav3.3. Further, in series [3] (wildtype F1, brain/plasma, ip, mouse, read-out: brain-plasma ratio), the Kp is 0.48. In addition, the time of peak concentration (Tmax) in series [3] (mouse brain) and in series [3] (mouse plasma) was no more than 15 min throughout. The half-life in series [3] (mouse brain) worked out at 14 min; in series [3] (mouse plasma), 23 min. The Cmax in series [3] (mouse brain, read-out: Cmax) worked out at 2300 ± 300 nM; in series [3] (mouse brain, read-out: Cmax (μg/mL)), 0.97 ± 0.1 µg/mL; in series [3] (mouse plasma, read-out: Cmax), 3100 ± 700 nM; in series [3] (mouse plasma, read-out: Cmax (μg/mL)) it was 1.3 ± 0.3 µg/mL. Further, the exposure (AUC) in series [3] (brain, ip, mouse brain, brain concentration converted assuming density of 1 g/mL) was 350 ng·h/mL; in series [3] (plasma, ip, mouse plasma), 733 ng·h/mL. The “inhibition of T-type channels” value in the series on T-type channels is “strongly inhibit”. The “activity at cannabinoid CB1 receptors” value in series [1] is given as “minimal activity”.

On to `CCCC(CCC)C(=O)O` [valproic acid, reference compound], for which the “protection from seizures compared to vehicle” value in series [4] is reported as “significant protection”.
